According to publication PMC2119337 (The Journal of Experimental Medicine, 1992):
No end group written: not given here.

Assays:
(PL/J x SJL/J)F1 mice [1] = assay: Inhibition of EAE by coimmunization of competitor peptide with Ac1-11; type: in vivo; settings: Table 2, Ac1-11 25 nmol alone or with competitor 500 nmol
[2] = biological target: T1, A alpha uA beta u (MHC class II molecules) (Mus musculus, UniProt P06344+P14438); settings: cited from earlier work
T1 sequence (P14438 1-227): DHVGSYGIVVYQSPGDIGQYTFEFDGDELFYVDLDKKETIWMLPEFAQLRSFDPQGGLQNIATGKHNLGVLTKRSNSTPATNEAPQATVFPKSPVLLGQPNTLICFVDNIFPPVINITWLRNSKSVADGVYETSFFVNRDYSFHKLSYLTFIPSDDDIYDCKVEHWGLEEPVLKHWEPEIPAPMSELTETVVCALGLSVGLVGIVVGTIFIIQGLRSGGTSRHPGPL
T1 sequence (P06344 28-263): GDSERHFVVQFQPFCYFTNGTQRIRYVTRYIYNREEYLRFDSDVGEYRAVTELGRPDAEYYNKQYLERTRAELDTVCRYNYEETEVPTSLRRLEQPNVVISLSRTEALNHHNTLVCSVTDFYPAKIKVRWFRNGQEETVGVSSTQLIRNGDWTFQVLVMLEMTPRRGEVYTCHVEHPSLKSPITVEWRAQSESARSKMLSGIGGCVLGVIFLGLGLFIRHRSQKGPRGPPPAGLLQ

(PL/J x SJL/J)F1 mice [3] = type: in vivo; settings: Table 1, observed 30-35 d, three experiments

Ac1-11: immunodominant N-terminal myelin basic protein (MBP) peptide, wild type (Ac-MGNHSGKRELS; UniProt P04370 1-11, looked up, fragment)
Day of onset ((PL/J x SJL/J)F1 mice [1]): 12.75 | Mean clinical scores ((PL/J x SJL/J)F1 mice [1]; grades 1-5): 3.4 | Binding to AαuAβu [2]: poor binder | Incidence of EAE (mice with disease/total) ((PL/J x SJL/J)F1 mice [3]; 100 nmol peptide in CFA s.c.): 27/31 | Percent incidence of EAE ((PL/J x SJL/J)F1 mice [3]; […]): 87%
